# Laboratory results: patent US11571418B2, “Platinum compounds that inhibit constitutive STAT3 signaling and induce cell cycle arrest and apoptosis of malignant cells” (H. LEE MOFFITT CANCER CENTER AND RESEARCH INSTITUTE, INC., priority 2011, dated 2023)
# Tested on: Stat3 tyrosine phosphorylation
# Test: Stat3 tyrosine phosphorylation, Western blot
# Type: cell-based
# Details: mouse fibroblasts, time- and dose-dependent
# Method: FIGS. 3A-3D. Inhibition of Stat3-mediated gene expression by PLATINUM-401. (FIG. 3A) and (FIG. 3B) v-Src-transformed mouse fibroblasts that stably express Stat3-dependent (NIH3T3/v-Src/pLucTKS3) and Stat3-independent (NIH3T3/v-Src/pRLSRE) luciferase reporters or β-galactosidase (β-gal), as well as normal mouse fibroblast (NIH3T3) transiently transfected with pLucTKS3, pGL2-VEGF-Luc, NFkB-Luc or pLucSRE together with or without v-Src were treated with or without PLATINUM-401 for 48 h. Cytosolic extracts were then prepared from cells for luciferase and […] activities measurements. Values are the means and S.D. of three to five independent assays; (FIG. 3C) and (FIG. 3D) Nuclear extracts or whole cell lysates were prepared from IL-6-stimulated normal mouse fibroblasts (NIH3T3) or their v-Src-transformed counterpart (NIH3T3/v-Src) that are treated with or without PLATINUM-401 for different times. Samples of equal total proteins were then subjected to in vitro DNA-binding activity and EMSA analysis or for SDS-PAGE and Western blot analysis for phosphorylated and total Stat3.
# Western blot—Whole-cell lysates were prepared in boiling sodium dodecyl sulfate (SDS) sample-loading buffer to extract total proteins from the cytoplasm and nucleus. […]
# To further investigate the activities of PLATINUM-401, the inventors treated malignant cells and measured effects on Stat3 signaling. […]
smiles,measurement,value
CC(O)CN1CCN(CC(C)O)CC1 (stereo not shown) [PLATINUM-401],Stat3 tyrosine phosphorylation,inhibits
